In PubChem BioAssay (NCI):
Several values for one entry are separate records, joined by “and”; a condition that tells them apart may be missing. Identical values can stand only once.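 These data come from cells grown in 96-well plates and exposed to compound for 48 hours at five concentrations. At the GI50, growth is halved. At the TGI there is no net growth.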

Legend:
Test in all cases: growth of human tumour cells (NCI), 48 h
SK-OV-3 ovarian = system: SK-OV-3 ovarian
EKVX NSCLC = system: EKVX NSCLC
SW-620 colon = system: SW-620 colon
K-562 leukemia = system: K-562 leukemia
HCT-15 colon = system: HCT-15 colon
TK-10 renal = system: TK-10 renal
DU-145 prostate = system: DU-145 prostate
PC-3 prostate = system: PC-3 prostate
MDA-MB-231 breast = system: MDA-MB-231 breast
MDA-MB-435 = system: MDA-MB-435

O=C1C2c3[nH]c4ccccc4c3C3CCSCC3C2C(=O)N1c1ccccc1 (centres undefined)
TGI (SK-OV-3 ovarian): > 100 µM | TGI (EKVX NSCLC): > 100 µM | TGI (SW-620 colon): > 100 µM | TGI (K-562 leukemia): > 100 µM | TGI (HCT-15 colon): > 100 µM | TGI (TK-10 renal): > 100 µM

COC(=O)C1Cc2c(n(C)c3ccccc23)C(c2ccccc2)N1 (centres undefined)
TGI (SK-OV-3 ovarian): > 100 µM | TGI (EKVX NSCLC): > 100 µM | TGI (SW-620 colon): > 100 µM | TGI (K-562 leukemia): > 100 µM | TGI (HCT-15 colon): > 100 µM | TGI (TK-10 renal): > 100 µM

CCOC(=O)c1sc2ncn(Cc3cccc(Cl)c3)c(=O)c2c1C
GI50 (SK-OV-3 ovarian): 17.4 µM | TGI (SK-OV-3 ovarian): 31.2 µM | GI50 (DU-145 prostate): 17.7 µM | TGI (DU-145 prostate): 31.5 µM | GI50 (EKVX NSCLC): 17.3 µM | TGI (EKVX NSCLC): 31 µM | GI50 (SW-620 colon): 18.1 µM | TGI (SW-620 colon): 32 µM | GI50 (PC-3 prostate): 13.1 µM | TGI (PC-3 prostate): 25.8 µM | GI50 (MDA-MB-231 breast): 13.6 µM | TGI (MDA-MB-231 breast): 26.4 µM | GI50 (K-562 leukemia): 12.3 µM | TGI (K-562 leukemia): 24.8 µM | GI50 (MDA-MB-435): 13.9 µM | TGI (MDA-MB-435): 26.9 µM | GI50 (HCT-15 colon): 14.1 µM | TGI (HCT-15 colon): 27 µM

Cc1cc(S(=O)(=O)Nc2nnc(-c3ccco3)c(-c3ccco3)n2)c(SCc2ccccc2)cc1Cl
GI50 (DU-145 prostate): 17 µM | TGI (DU-145 prostate): 32.5 µM | GI50 (EKVX NSCLC): 17.5 µM | TGI (EKVX NSCLC): 37.6 µM | GI50 (SW-620 colon): 23 µM | TGI (SW-620 colon): 47.2 µM | GI50 (PC-3 prostate): 28 µM | TGI (PC-3 prostate): 57 µM | GI50 (MDA-MB-231 breast): 24.8 µM | TGI (MDA-MB-231 breast): 47.6 µM | GI50 (K-562 leukemia): 28.2 µM | TGI (K-562 leukemia): > 100 µM | GI50 (MDA-MB-435): 25.4 µM | TGI (MDA-MB-435): 49.6 µM | GI50 (HCT-15 colon): 21.1 µM | TGI (HCT-15 colon): 43.3 µM | GI50 (TK-10 renal): 26.7 µM | TGI (TK-10 renal): 74.8 µM

CN(C)CCCNC(=O)c1cc(NC(=O)c2cc(NC(=O)CCCN3c4ccccc4C=Cc4ccccc43)cn2C)cn1C
GI50 (SK-OV-3 ovarian): 21.9 µM | TGI (SK-OV-3 ovarian): > 100 µM | GI50 (DU-145 prostate): 10.6 µM | TGI (DU-145 prostate): 35.4 µM | GI50 (EKVX NSCLC): 17 µM | TGI (EKVX NSCLC): 71.3 µM | GI50 (SW-620 colon): 3.96 µM | TGI (SW-620 colon): > 100 µM | GI50 (PC-3 prostate): 5.33 µM | TGI (PC-3 prostate): > 100 µM | GI50 (MDA-MB-231 breast): 4.04 µM | TGI (MDA-MB-231 breast): 96 µM | GI50 (K-562 leukemia): 2.12 µM | TGI (K-562 leukemia): 4.97 µM | GI50 (HCT-15 colon): 25.7 µM | TGI (HCT-15 colon): 82.7 µM | GI50 (TK-10 renal): 2.74 µM | TGI (TK-10 renal): 13.9 µM

Nc1ccc(CCN2CCN(c3cccc(C(F)(F)F)c3)CC2)cc1
TGI (SK-OV-3 ovarian): > 100 µM | TGI (EKVX NSCLC): > 100 µM | TGI (K-562 leukemia): > 100 µM | TGI (HCT-15 colon): > 100 µM | TGI (TK-10 renal): > 100 µM

Cc1c2cc[n+](C)cc2c(C)c2c1[nH]c1ccc(OC(C)C)cc12
GI50 (SK-OV-3 ovarian): 1.98 µM and 4.47 µM | TGI (SK-OV-3 ovarian): > 85.5 µM | TGI (EKVX NSCLC): > 100 µM | TGI (SW-620 colon): 37.9 µM and 21.3 µM | GI50 (K-562 leukemia): 1.02 µM and 2.55 µM | TGI (K-562 leukemia): > 46.4 µM | TGI (HCT-15 colon): > 100 µM | TGI (TK-10 renal): > 100 µM

CC1(c2ccccc2)CC12C(=O)NC(=O)NC2=O (centres undefined)
TGI (SK-OV-3 ovarian): > 100 µM | TGI (EKVX NSCLC): > 100 µM | TGI (SW-620 colon): > 100 µM | TGI (K-562 leukemia): > 100 µM | TGI (HCT-15 colon): > 100 µM | TGI (TK-10 renal): > 100 µM

O=C1c2cccnc2-c2nc(-c3ccccn3)cc3c2c1nc1ccccc13
GI50 (SK-OV-3 ovarian): 0.192 µM | TGI (SK-OV-3 ovarian): 0.581 µM | GI50 (DU-145 prostate): 0.156 µM | TGI (DU-145 prostate): 0.57 µM | GI50 (EKVX NSCLC): 0.62 µM | TGI (EKVX NSCLC): 2.1 µM | GI50 (PC-3 prostate): 0.557 µM | TGI (PC-3 prostate): 1.85 µM | GI50 (MDA-MB-231 breast): 0.185 µM | TGI (MDA-MB-231 breast): 0.5 µM | GI50 (K-562 leukemia): 0.136 µM | TGI (K-562 leukemia): 0.632 µM | GI50 (MDA-MB-435): 0.728 µM | TGI (MDA-MB-435): 2.09 µM | GI50 (HCT-15 colon): < 0.0209 µM | TGI (HCT-15 colon): 0.259 µM | GI50 (TK-10 renal): 0.296 µM | TGI (TK-10 renal): 1.11 µM

Clc1ccc(Nc2ccnc(NCCNc3ccnc4cc(Cl)ccc34)n2)cc1
GI50 (SK-OV-3 ovarian): 1.44 µM | TGI (SK-OV-3 ovarian): 2.76 µM | GI50 (DU-145 prostate): 1.59 µM | TGI (DU-145 prostate): 2.97 µM | GI50 (SW-620 colon): 1.14 µM | TGI (SW-620 colon): 2.64 µM | GI50 (PC-3 prostate): 1.19 µM | TGI (PC-3 prostate): 3.15 µM | GI50 (MDA-MB-231 breast): 1.59 µM | TGI (MDA-MB-231 breast): 3.31 µM | GI50 (K-562 leukemia): 0.501 µM | TGI (K-562 leukemia): 1.87 µM | GI50 (MDA-MB-435): 1.37 µM | TGI (MDA-MB-435): 2.68 µM | GI50 (HCT-15 colon): 1.03 µM | TGI (HCT-15 colon): 2.36 µM | GI50 (TK-10 renal): 1.76 µM | TGI (TK-10 renal): 3.17 µM

CCC12CCC(O)C1N(C)CCC2Sc1ccccc1 (centres undefined)
TGI (SK-OV-3 ovarian): > 100 µM | TGI (EKVX NSCLC): > 100 µM | TGI (SW-620 colon): > 100 µM | TGI (K-562 leukemia): > 100 µM | TGI (HCT-15 colon): > 100 µM | TGI (TK-10 renal): > 100 µM

N#C[C@]12CC3(CC[C@H]1CC1(C2)OCCO1)OCCO3
TGI (SK-OV-3 ovarian): > 100 µM | TGI (SW-620 colon): > 100 µM | TGI (K-562 leukemia): > 100 µM | TGI (HCT-15 colon): > 100 µM | TGI (TK-10 renal): > 100 µM

CC(=O)CC(=O)CCCC(=O)Nc1ccc(Cl)cc1Cl
TGI (SK-OV-3 ovarian): > 100 µM | TGI (SW-620 colon): > 100 µM | TGI (K-562 leukemia): > 100 µM | TGI (HCT-15 colon): > 100 µM | TGI (TK-10 renal): > 100 µM

O=C(Nc1cccc(C2=NCCN2)c1)c1ccc(OCCCOc2ccc(C(=O)Nc3cccc(C4=NCCN4)c3)cc2)cc1
GI50 (SK-OV-3 ovarian): 2.39 µM | TGI (SK-OV-3 ovarian): 5.41 µM | GI50 (PC-3 prostate): 2.78 µM | TGI (PC-3 prostate): 8.21 µM | GI50 (K-562 leukemia): 1.25 µM | TGI (K-562 leukemia): > 100 µM | GI50 (HCT-15 colon): 20.2 µM | TGI (HCT-15 colon): > 100 µM | GI50 (TK-10 renal): 13.2 µM | TGI (TK-10 renal): 35.3 µM

COc1cccc(/C=C\c2cc(OC)c(OC)c(OC)c2)c1
TGI (SK-OV-3 ovarian): > 100 µM | TGI (EKVX NSCLC): > 100 µM | TGI (SW-620 colon): > 100 µM | TGI (K-562 leukemia): 43.7 µM | TGI (HCT-15 colon): > 100 µM

O=C(CCl)Nc1ccccc1SCc1cc(Cl)cc2c1OCOC2
GI50 (SK-OV-3 ovarian): 12.2 µM | TGI (SK-OV-3 ovarian): 33.5 µM | GI50 (DU-145 prostate): 15.7 µM | TGI (DU-145 prostate): 29.4 µM | GI50 (SW-620 colon): 3.73 µM | TGI (SW-620 colon): 17.1 µM | GI50 (PC-3 prostate): 11.4 µM | TGI (PC-3 prostate): 25.9 µM | GI50 (MDA-MB-231 breast): 5.97 µM | TGI (MDA-MB-231 breast): 28 µM | GI50 (K-562 leukemia): 3.35 µM | TGI (K-562 leukemia): 25.1 µM | GI50 (MDA-MB-435): 2.87 µM | TGI (MDA-MB-435): 11.1 µM | GI50 (HCT-15 colon): 6.4 µM | TGI (HCT-15 colon): 21.6 µM | GI50 (TK-10 renal): 16.9 µM | TGI (TK-10 renal): 31.4 µM

Cc1ccc(C)c(NC(=O)CC2C(=O)Nc3ccccc3S2(=O)=O)c1 (centres undefined)
TGI (EKVX NSCLC): > 100 µM | TGI (SW-620 colon): > 100 µM | TGI (K-562 leukemia): > 100 µM | TGI (HCT-15 colon): > 100 µM | TGI (TK-10 renal): > 100 µM

COC(=O)C/C(C)=C/[C@@H](O)[C@H]1O[C@@H]2CC/C(Cl)=C/C/C=C(/C)[C@H](OC(C)=O)CC(=O)O[C@@H]1C2
GI50 (DU-145 prostate): 1.29 µM | TGI (DU-145 prostate): > 25 µM | GI50 (EKVX NSCLC): 4.93 µM | TGI (EKVX NSCLC): 14.3 µM | GI50 (SW-620 colon): 19.1 µM | TGI (SW-620 colon): > 25 µM | GI50 (PC-3 prostate): 1.08 µM | TGI (PC-3 prostate): 4.13 µM | GI50 (MDA-MB-231 breast): 4.07 µM | TGI (MDA-MB-231 breast): 11.8 µM | GI50 (K-562 leukemia): 4.34 µM | TGI (K-562 leukemia): > 25 µM | GI50 (HCT-15 colon): 8.01 µM | TGI (HCT-15 colon): > 25 µM | GI50 (TK-10 renal): 0.489 µM | TGI (TK-10 renal): 1.32 µM

OCc1ccc(N(Cc2ccc(F)cc2)C2CCC2)cc1Cl
GI50 (SK-OV-3 ovarian): 11 µM | TGI (SK-OV-3 ovarian): 23 µM | GI50 (DU-145 prostate): 14.2 µM | TGI (DU-145 prostate): 28 µM | GI50 (SW-620 colon): 0.744 µM | TGI (SW-620 colon): 16.8 µM | GI50 (PC-3 prostate): 11.9 µM | TGI (PC-3 prostate): 24.8 µM | GI50 (MDA-MB-231 breast): 14.9 µM | TGI (MDA-MB-231 breast): 28.6 µM | GI50 (K-562 leukemia): 1.01 µM | TGI (K-562 leukemia): 15 µM | GI50 (MDA-MB-435): 16.2 µM | TGI (MDA-MB-435): 31.1 µM | GI50 (HCT-15 colon): 10.9 µM | TGI (HCT-15 colon): 25.7 µM | GI50 (TK-10 renal): 0.0551 µM | TGI (TK-10 renal): 0.278 µM
